According to PubChem BioAssay (NCI):
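Results reflect a 48-hour exposure of cells in 96-well plates to compound at five concentrations. Abbreviation: GI50, concentration required for 50% inhibition of growth. At the TGI there is no net growth.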

Tests used:
Assay in all cases: NCI-60 cell line screen, 48 h; in the data active = GI50 below about 0.43 µM; inactive = the rest
PC-3 prostate = test system: PC-3 prostate
NCI-H522 lung = test system: NCI-H522 lung
DU-145 prostate = test system: DU-145 prostate
HOP-92 NSCLC = test system: HOP-92 NSCLC
SF-539 CNS = test system: SF-539 CNS
HT29 colon = test system: HT29 colon
NCI-H23 lung = test system: NCI-H23 lung
HCT-15 colon = test system: HCT-15 colon
UACC-257 melanoma = test system: UACC-257 melanoma
SN12C renal = test system: SN12C renal
SK-MEL-28 melanoma = test system: SK-MEL-28 melanoma
MALME-3M melanoma = test system: MALME-3M melanoma
OVCAR-8 ovarian = test system: OVCAR-8 ovarian
HL-60(TB) leukemia = test system: HL-60(TB) leukemia
NCI/ADR-RES ovarian = test system: NCI/ADR-RES ovarian
SNB-19 CNS = test system: SNB-19 CNS
RXF 393 renal = test system: RXF 393 renal
HCC-2998 colon = test system: HCC-2998 colon
LOX IMVI melanoma = test system: LOX IMVI melanoma
SK-MEL-2 melanoma = test system: SK-MEL-2 melanoma
MDA-MB-435 = test system: MDA-MB-435
A549 NSCLC = test system: A549 NSCLC
U251 CNS = test system: U251 CNS
SK-OV-3 ovarian = test system: SK-OV-3 ovarian
A498 renal = test system: A498 renal
BT-549 breast = test system: BT-549 breast
SW-620 colon = test system: SW-620 colon
SR leukemia = test system: SR leukemia
KM12 colon = test system: KM12 colon
MCF7 breast = test system: MCF7 breast
MDA-MB-231 breast = test system: MDA-MB-231 breast
EKVX NSCLC = test system: EKVX NSCLC
HOP-62 NSCLC = test system: HOP-62 NSCLC
RPMI-8226 leukemia = test system: RPMI-8226 leukemia
MOLT-4 leukemia = test system: MOLT-4 leukemia
UO-31 renal = test system: UO-31 renal
OVCAR-3 ovarian = test system: OVCAR-3 ovarian
IGROV1 ovarian = test system: IGROV1 ovarian
CCRF-CEM leukemia = test system: CCRF-CEM leukemia
SF-295 CNS = test system: SF-295 CNS
CAKI-1 renal = test system: CAKI-1 renal
COLO 205 colon = test system: COLO 205 colon
786-0 renal = test system: 786-0 renal
NCI-H460 lung = test system: NCI-H460 lung
ACHN renal = test system: ACHN renal
HS 578T breast = test system: HS 578T breast
OVCAR-4 ovarian = test system: OVCAR-4 ovarian
SK-MEL-5 melanoma = test system: SK-MEL-5 melanoma
HCT-116 colon = test system: HCT-116 colon
UACC-62 melanoma = test system: UACC-62 melanoma
T-47D breast = test system: T-47D breast
SF-268 CNS = test system: SF-268 CNS
K-562 leukemia = test system: K-562 leukemia
TK-10 renal = test system: TK-10 renal
NCI-H226 lung = test system: NCI-H226 lung
OVCAR-5 ovarian = test system: OVCAR-5 ovarian
SNB-75 CNS = test system: SNB-75 CNS

O=c1cc(NCC(O)CN2CCOCC2)n(Cc2ccccc2)c(=O)n1Cc1ccccc1 (centres undefined)
77.1 µM: TGI (HOP-92 NSCLC)
78 µM: TGI (RPMI-8226 leukemia)
53.6 µM: TGI (MDA-MB-231 breast)
41.6 µM: TGI (HT29 colon)
86.3 µM: TGI (IGROV1 ovarian)
77.3 µM: TGI (MALME-3M melanoma)
63.3 µM: TGI (UACC-62 melanoma)
inactive: GI50 (PC-3 prostate) 33.7 µM | GI50 (NCI-H522 lung) 28.1 µM | GI50 (DU-145 prostate) 51.7 µM | GI50 (HOP-92 NSCLC) 21.7 µM | GI50 (SF-539 CNS) 60.2 µM | GI50 (HT29 colon) 18.8 µM | GI50 (NCI-H23 lung) 42.5 µM | GI50 (HCT-15 colon) 45.5 µM | GI50 (UACC-257 melanoma) 30.2 µM | GI50 (SN12C renal) 42.3 µM | GI50 (SK-MEL-28 melanoma) 28.7 µM | GI50 (MALME-3M melanoma) 26.9 µM | GI50 (OVCAR-8 ovarian) 72.8 µM | GI50 (HL-60(TB) leukemia) 12.6 µM | GI50 (NCI/ADR-RES ovarian) 65.7 µM | GI50 (SNB-19 CNS) > 100 µM | GI50 (RXF 393 renal) 30.5 µM | GI50 (HCC-2998 colon) 34.9 µM | GI50 (LOX IMVI melanoma) 37.8 µM | GI50 (SK-MEL-2 melanoma) > 100 µM | GI50 (MDA-MB-435) 59.7 µM | GI50 (A549 NSCLC) 53.5 µM | GI50 (U251 CNS) 47.6 µM | GI50 (SK-OV-3 ovarian) > 100 µM | GI50 (A498 renal) 49.3 µM | GI50 (BT-549 breast) 45.9 µM | GI50 (SW-620 colon) 62.5 µM | GI50 (SR leukemia) 19.8 µM | GI50 (KM12 colon) 36.1 µM | GI50 (MCF7 breast) 41.8 µM | GI50 (MDA-MB-231 breast) 19.2 µM | GI50 (EKVX NSCLC) 70.6 µM | GI50 (HOP-62 NSCLC) 34.2 µM | GI50 (RPMI-8226 leukemia) 28.3 µM | GI50 (MOLT-4 leukemia) 27.8 µM | GI50 (UO-31 renal) 27.3 µM | GI50 (OVCAR-3 ovarian) 56.2 µM | GI50 (IGROV1 ovarian) 33.5 µM | GI50 (CCRF-CEM leukemia) 36.9 µM | GI50 (SF-295 CNS) 41.2 µM | GI50 (CAKI-1 renal) 85.9 µM | GI50 (COLO 205 colon) 23.5 µM | GI50 (786-0 renal) 41.4 µM | GI50 (NCI-H460 lung) 44.2 µM | GI50 (ACHN renal) 49.8 µM | GI50 (HS 578T breast) 37.8 µM | GI50 (OVCAR-4 ovarian) 39.9 µM | GI50 (SK-MEL-5 melanoma) 19.2 µM | GI50 (HCT-116 colon) 34.8 µM | GI50 (UACC-62 melanoma) 22.7 µM | GI50 (T-47D breast) 61 µM | GI50 (SF-268 CNS) 63.6 µM | GI50 (K-562 leukemia) 30.8 µM | GI50 (TK-10 renal) > 100 µM | GI50 (NCI-H226 lung) 56.8 µM | GI50 (OVCAR-5 ovarian) > 100 µM | GI50 (SNB-75 CNS) 31.8 µM
> 100 µM: TGI (PC-3 prostate) | TGI (DU-145 prostate) | TGI (SF-539 CNS) | TGI (NCI-H23 lung) | TGI (HCT-15 colon) | TGI (SN12C renal) | TGI (OVCAR-8 ovarian) | TGI (HL-60(TB) leukemia) | TGI (NCI/ADR-RES ovarian) | TGI (SNB-19 CNS) | TGI (HCC-2998 colon) | TGI (LOX IMVI melanoma) | TGI (SK-MEL-2 melanoma) | TGI (MDA-MB-435) | TGI (A549 NSCLC) | TGI (U251 CNS) | TGI (SK-OV-3 ovarian) | TGI (A498 renal) | TGI (BT-549 breast) | TGI (SW-620 colon) | TGI (KM12 colon) | TGI (MCF7 breast) | TGI (EKVX NSCLC) | TGI (HOP-62 NSCLC) | TGI (MOLT-4 leukemia) | TGI (OVCAR-3 ovarian) | TGI (CCRF-CEM leukemia) | TGI (SF-295 CNS) | TGI (CAKI-1 renal) | TGI (786-0 renal) | TGI (NCI-H460 lung) | TGI (ACHN renal) | TGI (HS 578T breast) | TGI (OVCAR-4 ovarian) | TGI (HCT-116 colon) | TGI (T-47D breast) | TGI (SF-268 CNS) | TGI (K-562 leukemia) | TGI (TK-10 renal) | TGI (NCI-H226 lung) | TGI (OVCAR-5 ovarian)
70.3 µM: TGI (SK-MEL-28 melanoma)
35 µM: TGI (SK-MEL-5 melanoma)
92.5 µM: TGI (RXF 393 renal)
85.8 µM: TGI (UACC-257 melanoma) | TGI (UO-31 renal)
49.3 µM: TGI (SR leukemia)
91.3 µM: TGI (SNB-75 CNS)
58.6 µM: TGI (COLO 205 colon)
72 µM: TGI (NCI-H522 lung)
